# pKi: −log10 of the molar value.
# Biological target: human NK-3 receptor (Homo sapiens (Human), UniProt P29371)
# Test: 3H-SB222200 binding competition assay with human NK-3 receptor
# Conditions: 3H-SB222200 displacement, CHO cell membranes expressing human NK3 receptor; read-out: Ki range
# Method in brief: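 Radioligand displacement: 5 nM tritiated SB222200 competed by varying compound concentrations on recombinant CHO membranes bearing human NK3, buffer pH 7.4 with HEPES, NaCl, CaCl2, MgCl2, BSA and saponin. Filter-bound radioactivity quantified; calculated Ki given as ranges from +++ (<500 nM) to # (>5 μM).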
# human NK-3 receptor, sequence (P29371 whole entry): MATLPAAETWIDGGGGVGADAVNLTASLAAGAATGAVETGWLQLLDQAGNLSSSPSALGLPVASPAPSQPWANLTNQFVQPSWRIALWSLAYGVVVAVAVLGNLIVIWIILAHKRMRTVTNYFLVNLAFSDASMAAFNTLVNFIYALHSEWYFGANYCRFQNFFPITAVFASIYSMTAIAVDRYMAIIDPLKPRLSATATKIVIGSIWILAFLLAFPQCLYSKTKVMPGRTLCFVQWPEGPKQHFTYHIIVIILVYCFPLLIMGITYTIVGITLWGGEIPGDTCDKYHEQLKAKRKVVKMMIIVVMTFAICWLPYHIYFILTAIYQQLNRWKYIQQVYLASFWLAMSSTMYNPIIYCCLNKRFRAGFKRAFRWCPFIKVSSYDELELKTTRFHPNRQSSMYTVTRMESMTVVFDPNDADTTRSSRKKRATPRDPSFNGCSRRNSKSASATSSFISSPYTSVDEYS
row,pKi,SMILES
1,> 6.30,"O=C(c1ccc(-c2ccccc2)cc1)N1CCn2c(nnc2-c2nc(-c3ccc(F)cc3)no2)C1 [Compound 204, [1,1′-biphenyl]-4-yl(3-(3-(4-fluorophenyl)-1,2,4-oxadiazol-5-yl)-5,6-dihydro-[1,2,4]triazolo[4,3-a]pyrazin-7(8H)-yl)methanone]"
2,> 6.30,"CC1c2nnc(-c3csc(-c4ccc(F)cc4F)n3)n2CCN1C(=O)c1ccc(-c2cccs2)cc1 (stereo not shown) [Compound 80, (3-(2-(2,4-difluorophenyl)thiazol-4-yl)-8-methyl-5,6-dihydro-[1,2,4]triazolo[4,3-a]pyrazin-7(8H)-yl)(4-(thiophen-2-yl)phenyl)methanone]"
3,> 6.30,"CC1c2nnc(-c3csc(-c4ccccc4)n3)n2CCN1C(=O)c1ccc(-c2ccsc2)cc1 (stereo not shown) [Compound 64, (8-methyl-3-(2-phenylthiazol-4-yl)-5,6-dihydro-[1,2,4]triazolo[4,3-a]pyrazin-7(8H)-yl)(4-(thiophen-3-yl)phenyl)methanone]"
4,> 6.30,"Cc1ccc(-c2ccc(C(=O)N3CCn4c(-c5csc(-c6ccc(F)cc6)n5)nnc4C3C)cc2)s1 (stereo not shown) [Compound 215, (3-(2-(4-fluorophenyl)thiazol-4-yl)-8-methyl-5,6-dihydro-[1,2,4]triazolo[4,3-a]pyrazin-7(8H)-yl)(4-(5-methylthiophen-2-yl)phenyl)methanone]"
5,> 6.30,"O=C(c1ccc(F)cc1)N1CCn2c(nnc2-c2csc(-c3ccccc3)n2)C1 [Compound 8, (4-fluorophenyl)(3-(2-phenylthiazol-4-yl)-5,6-dihydro-[1,2,4]triazolo[4,3-a]pyrazin-7(8H)-yl)methanone]"
6,6.00 to 6.30,"COc1ccccc1-c1nc(-c2nnc3n2CCN(C(=O)c2ccc(-c4ccccc4)cc2)C3)cs1 [Compound 203, [1,1′-biphenyl]-4-yl(3-(2-(2-methoxyphenyl)thiazol-4-yl)-5,6-dihydro-[1,2,4]triazolo[4,3-a]pyrazin-7(8H)-yl)methanone]"
7,> 6.30,"O=C(c1ccc(-c2ccccc2)cc1)N1CCn2c(nnc2-c2csc(-c3ccccc3)n2)C1 [Compound 26, [1,1′-biphenyl]-4-yl(3-(2-phenylthiazol-4-yl)-5,6-dihydro-[1,2,4]triazolo[4,3-a]pyrazin-7(8H)-yl)methanone]"
8,6.00 to 6.30,"C[C@H]1c2nnc(-c3csc(-c4ccccc4)n3)n2CCN1C(=O)c1ccc(F)cc1 [Compound 167, (S)-(4-fluorophenyl)(8-methyl-3-(2-phenylthiazol-4-yl)-5,6-dihydro-[1,2,4]triazolo[4,3-a]pyrazin-7(8H)-yl)methanone]"
9,> 6.30,"Cc1sccc1-c1ccc(C(=O)N2CCn3c(-c4csc(-c5ccc(F)cc5)n4)nnc3[C@@H]2C)cc1 [Compound 233, (S)-(3-(2-(4-fluorophenyl)thiazol-4-yl)-8-methyl-5,6-dihydro-[1,2,4]triazolo[4,3-a]pyrazin-7(8H)-yl)(4-(2-methylthiophen-3-yl)phenyl)methanone]"
10,> 6.30,"CC1c2nnc(-c3csc(-c4ccc(F)cc4)n3)n2CCN1C(=O)c1ccc(-c2ccccc2)cc1 (stereo not shown) [Compound 76, [1,1′-biphenyl]-4-yl(3-(2-(4-fluorophenyl)thiazol-4-yl)-8-methyl-5,6-dihydro-[1,2,4]triazolo[4,3-a]pyrazin-7(8H)-yl)methanone]"

# Continued, molecule first:
row,SMILES,pKi
1,"O=C(c1ccc(F)cc1)N1CCn2c(nnc2-c2csc(Cc3ccc(Cl)cc3)n2)C1 [Compound 188, (3-(2-(4-chlorobenzyl)thiazol-4-yl)-5,6-dihydro-[1,2,4]triazolo[4,3-a]pyrazin-7(8H)-yl)(4-fluorophenyl)methanone]",6.00 to 6.30
2,"O=C(c1ccc(-c2cccs2)cc1)N1CCn2c(nnc2-c2csc(-c3ccccc3)n2)C1 [Compound 54, (3-(2-phenylthiazol-4-yl)-5,6-dihydro-[1,2,4]triazolo[4,3-a]pyrazin-7(8H)-yl)(4-(thiophen-2-yl)phenyl)methanone]",> 6.30
3,"CC(C)CC(=O)N1CCn2c(nnc2-c2ccc3ccccc3n2)C1 [Compound 95, 3-methyl-1-(3-(quinolin-2-yl)-5,6-dihydro-[1,2,4]triazolo[4,3-a]pyrazin-7(8H)-yl)butan-1-one]",5.30 to 6.00
4,"N#Cc1ccc(-c2ccc(C(=O)N3CCn4c(nnc4-c4ccc5ccccc5n4)C3)cc2)cc1 [Compound 103, 4′-(3-(quinolin-2-yl)-5,6,7,8-tetrahydro-[1,2,4]triazolo[4,3-a]pyrazine-7-carbonyl)-[1,1′-biphenyl]-4-carbonitrile]",5.30 to 6.00
5,"CC1CN(c2nc(-c3nnc4n3CCN(C(=O)c3ccc(-c5cccs5)cc3)C4)cs2)CC(C)O1 (stereo not shown) [Compound 265, (3-(2-(2,6-dimethylmorpholino)thiazol-4-yl)-5,6-dihydro-[1,2,4]triazolo[4,3-a]pyrazin-7(8H)-yl)(4-(thiophen-2-yl)phenyl)methanone]",> 6.30
6,"N#Cc1ccc(-c2nc(-c3nnc4n3CCN(C(=O)c3ccc(-c5cccs5)cc3)C4)cs2)cc1 [Compound 236, 4-(4-(7-(4-(thiophen-2-yl)benzoyl)-5,6,7,8-tetrahydro-[1,2,4]triazolo[4,3-a]pyrazin-3-yl)thiazol-2-yl)benzonitrile]",> 6.30
7,"CN(C)c1ccc(-c2nc(-c3nnc4n3CCN(C(=O)c3ccc(-c5cccs5)cc3)C4)cs2)cc1 [Compound 229, (3-(2-(4-(dimethylamino)phenyl)thiazol-4-yl)-5,6-dihydro-[1,2,4]triazolo[4,3-a]pyrazin-7(8H)-yl)(4-(thiophen-2-yl)phenyl)methanone]",> 6.30
8,"O=C(c1cc(-c2ccc(Oc3ccccc3)cc2)n[nH]1)N1CCn2c(nnc2-c2ccccn2)C1 [Compound 18, (3-(4-phenoxyphenyl)-1H-pyrazol-5-yl)(3-(pyridin-2-yl)-5,6-dihydro-[1,2,4]triazolo[4,3-a]pyrazin-7(8H)-yl)methanone]",5.30 to 6.00
9,"O=C(c1ccc(-c2cccs2)cc1)N1CCn2c(nnc2-c2cc(-c3ccccc3)n(CCO)n2)C1 [Compound 285, (3-(1-(2-hydroxyethyl)-5-phenyl-1H-pyrazol-3-yl)-5,6-dihydro-[1,2,4]triazolo[4,3-a]pyrazin-7(8H)-yl)(4-(thiophen-2-yl)phenyl)methanone]",> 6.30
10,"COCC1CCCCN1c1nc(-c2nnc3n2CCN(C(=O)c2ccc(-c4cccs4)cc2)C3)cs1 (stereo not shown) [Compound 279, (3-(2-(2-(methoxymethyl)piperidin-1-yl)thiazol-4-yl)-5,6-dihydro-[1,2,4]triazolo[4,3-a]pyrazin-7(8H)-yl)(4-(thiophen-2-yl)phenyl)methanone]",> 6.30
11,"CS(=O)(=O)Nc1ccc(-c2nc(-c3nnc4n3CCN(C(=O)c3ccc(-c5cccs5)cc3)C4)cs2)cc1 [Compound 283, N-(4-(4-(7-(4-(thiophen-2-yl)benzoyl)-5,6,7,8-tetrahydro-[1,2,4]triazolo[4,3-a]pyrazin-3-yl)thiazol-2-yl)phenyl)methanesulfonamide]",6.00 to 6.30
12,"CC(C)(C)OC(=O)NCCOc1ccccc1-c1nc(-c2nnc3n2CCN(C(=O)c2ccc(-c4cccs4)cc2)C3)cs1 [Compound 280, tert-butyl(2-(2-(4-(7-(4-(thiophen-2-yl)benzoyl)-5,6,7,8-tetrahydro-[1,2,4]triazolo[4,3-a]pyrazin-3-yl)thiazol-2-yl)phenoxy)ethyl)carbamate]",> 6.30
13,"O=C(c1ccc(-c2cccs2)cc1)N1CCn2c(nnc2-c2cc(-c3ccccc3)n[nH]2)C1 [Compound 267, (3-(3-phenyl-1H-pyrazol-5-yl)-5,6-dihydro-[1,2,4]triazolo[4,3-a]pyrazin-7(8H)-yl)(4-(thiophen-2-yl)phenyl)methanone]",> 6.30
14,"O=C(c1ccc(Cl)c(Cl)c1)N1CCn2c(nnc2-c2ccccn2)C1 [Compound 5, (3,4-dichlorophenyl)(3-(pyridin-2-yl)-5,6-dihydro-[1,2,4]triazolo[4,3-a]pyrazin-7(8H)-yl)methanone]",5.30 to 6.00
15,"O=C(c1ccc(F)cc1)N1CCn2c(nnc2-c2nc(-c3ccccc3)ns2)C1 [Compound 212, (4-fluorophenyl)(3-(3-phenyl-1,2,4-thiadiazol-5-yl)-5,6-dihydro-[1,2,4]triazolo[4,3-a]pyrazin-7(8H)-yl)methanone]",> 6.30
16,"O=C(c1ccc(F)cc1)N1CCn2c(cnc2-c2csc(-c3ccc(F)cc3)n2)C1 [Compound 260, (4-fluorophenyl)(3-(2-(4-fluorophenyl)thiazol-4-yl)-5,6-dihydroimidazo[1,5-a]pyrazin-7(8H)-yl)methanone]",> 6.30
17,"CN1CCN(c2nc(-c3nnc4n3CCN(C(=O)c3ccc(-c5cccs5)cc3)C4)cs2)CC1 [Compound 250, (3-(2-(4-methylpiperazin-1-yl)thiazol-4-yl)-5,6-dihydro-[1,2,4]triazolo[4,3-a]pyrazin-7(8H)-yl)(4-(thiophen-2-yl)phenyl)methanone]",6.00 to 6.30
18,"O=C(c1ccc(-c2ccccc2)cc1)N1CCn2c(nnc2-c2nc(-c3ccccc3)no2)C1 [Compound 217, [1,1′-biphenyl]-4-yl(3-(3-phenyl-1,2,4-oxadiazol-5-yl)-5,6-dihydro-[1,2,4]triazolo[4,3-a]pyrazin-7(8H)-yl)methanone]",> 6.30
19,"O=C(c1ccc(F)cc1)N1CCn2c(nnc2-c2csc(-c3cccc(C(F)(F)F)c3)n2)C1 [Compound 28, (4-fluorophenyl)(3-(2-(3-(trifluoromethyl)phenyl)thiazol-4-yl)-5,6-dihydro-[1,2,4]triazolo[4,3-a]pyrazin-7(8H)-yl)methanone]",> 6.30
20,"O=C(c1ccc(-c2cccs2)cc1)N1CCn2c(nnc2-c2csc(-c3ccc4ccccc4n3)n2)C1 [Compound 219, (3-(2-(quinolin-2-yl)thiazol-4-yl)-5,6-dihydro-[1,2,4]triazolo[4,3-a]pyrazin-7(8H)-yl)(4-(thiophen-2-yl)phenyl)methanone]",> 6.30
21,"C[C@@H]1c2nnc(-c3ccccn3)n2CCN1C(=O)c1ccc(F)cc1 [Compound 44, (R)-(4-fluorophenyl)(8-methyl-3-(pyridin-2-yl)-5,6-dihydro-[1,2,4]triazolo[4,3-a]pyrazin-7(8H)-yl)methanone]",5.30 to 6.00

# — patent US10544150B2, “NK-3 receptor selective antagonist compounds, pharmaceutical composition and methods for use in NK-3 receptors mediated disorders” (Ogeda SA, priority 2010, dated 2020)
